Measured values reported in patent US8586588B2, “Aryl pyridazinone derivatives and their use as H3 receptor ligands” (Cephalon, Inc., priority 2006, dated 2013).
Where a name gives a salt, the structure may show the parent alone.

Row | SMILES | melting point [°C]
1 | Cc1cc(-c2ccc(OCCCN3CCCCC3)cc2)nn(Cc2ccccc2)c1=O (as salt: HCl) [Example 44, 2-Benzyl-4-methyl-6-[4-(3-piperidin-1-yl-propoxy)-phenyl]-2H-pyridazin-3-one] | 232 to 233
2 | C[C@@H]1CCCN1CCCOc1ccc(-c2cc(Cc3ccccc3)c(=O)n(C)n2)cc1 (as salt: HCl) [Example 45, 4-Benzyl-2-methyl-6-{4-[3-((R)-2-methyl-pyrrolidin-1-yl)-propoxy]-phenyl}-2H-pyridazin-3-one] | 232 to 233
3 | Cn1nc(-c2ccc(OCCCN3CCCCC3)cc2)cc(Cc2ccccc2)c1=O (as salt: HCl) [Example 46, 4-Benzyl-2-methyl-6-[4-(3-piperidin-1-yl-propoxy)-phenyl]-2H-pyridazin-3-one] | 186 to 187
4 | C[C@@H]1CCCN1CCCOc1ccc(-c2nn(C)c(=O)cc2-c2ccccc2)cc1 (as salt: HCl) [Example 47, 2-Methyl-6-{4-[3-((R)-2-methyl-pyrrolidin-1-yl)-propoxy]-phenyl}-5-phenyl-2H-pyridazin-3-one] | 207 to 209
5 | Cn1nc(-c2ccc(OCCCN3CCCCC3)cc2)c(-c2ccccc2)cc1=O (as salt: HCl) [Example 48, 2-Methyl-5-phenyl-6-[4-(3-piperidin-1-yl-propoxy)-phenyl]-2H-pyridazin-3-one] | 212 to 214
6 | C[C@@H]1CCCN1CCCOc1ccc(-c2nn(C)c(=O)c3ccccc23)cc1 (as salt: HCl) [Example 49, 2-Methyl-4-{4-[3-((R)-2-methyl-pyrrolidin-1-yl)-propoxy]-phenyl}-2H-phthalazin-1-one] | 216 to 217
7 | Cn1nc(-c2ccc(OCCN3CCCCC3)cc2)c2ccccc2c1=O (as salt: HCl) [Example 51, 2-Methyl-4-[4-(2-piperidin-1-yl-ethoxy)-phenyl]-2H-phthalazin-1-one] | 253 to 254
8 | Cn1nc(-c2ccc(OCCCN3CCCC3)cc2)c2ccccc2c1=O (as salt: HCl) [Example 52, 2-Methyl-4-[4-(3-pyrrolidin-1-yl-propoxy)-phenyl]-2H-phthalazin-1-one] | 201 to 203
9 | Cn1nc(-c2ccc(OCCCN3CCCCCC3)cc2)c2ccccc2c1=O (as salt: HCl) [Example 53, 4-[4-(3-Azepan-1-yl-propoxy)-phenyl]-2-methyl-2H-phthalazin-1-one] | 238 to 240
10 | C[C@@H]1CCCN1CCCOc1ccc(-c2nn(Cc3ccc(Cl)cc3)c(=O)c3ccccc23)cc1 (as salt: HCl) [Example 54, 2-(4-Chloro-benzyl)-4-{4-[3-((R)-2-methyl-pyrrolidin-1-yl)-propoxy]-phenyl}-2H-phthalazin-1-one] | 217 to 218
11 | O=c1c2ccccc2c(-c2ccc(OCCCN3CCCCC3)cc2)nn1Cc1ccc(Cl)cc1 (as salt: HCl) [Example 55, 2-(4-Chloro-benzyl)-4-[4-(3-piperidin-1-yl-propoxy)-phenyl]-2H-phthalazin-1-one] | 216 to 217
12 | Cn1nc(-c2ccc(OCCCN3CCCCC3)cc2)c2c(c1=O)CCC2 (as salt: HCl) [Example 57, 2-Methyl-4-[4-(3-piperidin-1-yl-propoxy)-phenyl]-2,5,6,7-tetrahydro-cyclopenta[d]pyridazin-1-one] | 214 to 216
13 | C[C@@H]1CCCN1CCCOc1ccc(C2=NN(C)C(=O)C3CCCC23)cc1 (stereo partly drawn) (as salt: HCl) [Example 58, 2-Methyl-4-{4-[3-((R)-2-methyl-pyrrolidin-1-yl)-propoxy]-phenyl}-2,4a,5,6,7,7a-hexahydro-cyclopenta[d]pyridazin-1-one] | < 50
14 | CN1N=C(c2ccc(OCCCN3CCCCC3)cc2)C2CCCC2C1=O (centres unmarked) (as salt: HCl) [Example 59, 2-Methyl-4-[4-(3-piperidin-1-yl-propoxy)-phenyl]-2,4a,5,6,7,7a-hexahydro-cyclopenta[d]pyridazin-1-one] | < 50
15 | C[C@@H]1CCCN1CCCOc1ccc(-c2nn(C)c(=O)c3c2CCCC3)cc1 (as salt: HCl) [Example 60, 2-Methyl-4-{4-[3-((R)-2-methyl-pyrrolidin-1-yl)-propoxy]-phenyl}-5,6,7,8-tetrahydro-2H-phthalazin-1-one] | 156 to 158
16 | Cn1nc(-c2ccc(OCCCN3CCCCC3)cc2)c2c(c1=O)CCCC2 (as salt: HCl) [Example 61] | 196 to 198
17 | Cn1nc(-c2ccc(OCC3CCNCC3)cc2)c2ccccc2c1=O (as salt: HCl) [Example 63, 2-Methyl-4-[4-(piperidin-4-ylmethoxy)-phenyl]-2H-phthalazin-1-one] | 207 to 209
18 | C[C@@H]1CCCN1CCCOc1ccc2c(c1)CCc1cc(=O)n(-c3ccccc3)nc1-2 (as salt: HCl) [Example 76, 8-[3-((R)-2-Methyl-pyrrolidin-1-yl)-propoxy]-2-phenyl-5,6-dihydro-2H-benzo[h]cinnolin-3-one] | 140 to 142
19 | Cn1ncc2ccc(OCCCN3CCCCC3)cc2c1=O (as salt: HCl) [Example 80, 2-Methyl-7-(3-piperidin-1-yl-propoxy)-2H-phthalazin-1-one] | 251 to 252
20 | C[C@@H]1CCCN1CCCOc1ccc(-c2ccc(=O)n(-c3ccccc3)n2)cc1F (as salt: HCl) [Example 81, 6-{3-Fluoro-4-[3-((R)-2-methyl-pyrrolidin-1-yl)-propoxy]-phenyl}-2-phenyl-2H-pyridazin-3-one] | 190 to 191
21 | Cc1nn(C)c(=O)cc1-c1ccc(OCCCN2CCC[C@H]2C)cc1 (as salt: HCl) [Example 86, 2,6-Dimethyl-5-{4-[3-((R)-2-methyl-pyrrolidin-1-yl)-propoxy]-phenyl}-2H-pyridazin-3-one] | 176 to 178
22 | O=c1cc(-c2ccc(OCCCN3CCCCC3)cc2)cnn1-c1ccccn1 (as salt: HCl) [Example 95, 5-[4-(3-Piperidin-1-yl-propoxy)-phenyl]-2-pyridin-2-yl-2H-pyridazin-3-one] | 266 to 268
23 | O=c1cc(-c2ccc(OCCCN3CCCCCC3)cc2)cnn1-c1ccccn1 (as salt: HCl) [Example 96, 5-[4-(3-Azepan-1-yl-propoxy)-phenyl]-2-pyridin-2-yl-2H-pyridazin-3-one] | 230 to 232
24 | Cc1nn(-c2ccsc2)c(=O)cc1-c1ccc(OCCCN2CCC[C@H]2C)cc1 (as salt: HCl) [Example 108, 6-Methyl-5-{4-[3-((R)-2-methyl-pyrrolidin-1-yl)-propoxy]-phenyl}-2-thiophen-3-yl-2H-pyridazin-3-one] | 212 to 213
25 | C[C@@H]1CCCN1CCCOc1ccc(-c2ccc(=O)[nH]n2)cc1F (as salt: HCl) [Example 119, 6-{3-Fluoro-4-[3-((R)-2-methyl-pyrrolidin-1-yl)-propoxy]-phenyl}-2H-pyridazin-3-one] | 252 to 253
26 | O=c1ccc(-c2ccc(OCCCN3CCCCC3)c(F)c2)n[nH]1 (as salt: HCl) [Example 120, 6-[3-Fluoro-4-(3-piperidin-1-yl-propoxy)-phenyl]-2H-pyridazin-3-one] | 240 to 242

The next lines start with the values.

Row | melting point [°C] | SMILES
27 | 256 to 257 | Cn1nc(-c2ccc(OCC3CCN(C4CCC4)CC3)cc2)c2ccccc2c1=O (as salt: HCl) [Example 64, 4-[4-(1-Cyclobutyl-piperidin-4-ylmethoxy)-phenyl]-2-methyl-2H-phthalazin-1-one]
28 | 249 to 251 | Cn1nc(-c2ccc(OCC3CCNCC3)cc2)ccc1=O (as salt: HCl) [Example 66, 2-Methyl-6-[4-(piperidin-4-ylmethoxy)-phenyl]-2H-pyridazin-3-one]
29 | 250 to 252 | Cn1nc(-c2ccc(OCC3CCN(C4CCC4)CC3)cc2)ccc1=O (as salt: HCl) [Example 67, 6-[4-(1-Cyclobutyl-piperidin-4-ylmethoxy)-phenyl]-2-methyl-2H-pyridazin-3-one]
30 | 187 to 189 | CC(C)N1CCC(COc2ccc(-c3ccc(=O)n(C)n3)cc2)CC1 (as salt: HCl) [Example 68, 6-[4-(1-Isopropyl-piperidin-4-ylmethoxy)-phenyl]-2-methyl-2H-pyridazin-3-one]
31 | 230 to 231 | Cn1nc(-c2ccc(OCC3CCN(CC4CC4)CC3)cc2)ccc1=O (as salt: HCl) [Example 69, 6-[4-(1-Cyclopropylmethyl-piperidin-4-ylmethoxy)-phenyl]-2-methyl-2H-pyridazin-3-one]
32 | 250 to 251 | Cn1nc(-c2ccc(OCC3CCN(C4CCCC4)CC3)cc2)ccc1=O (as salt: HCl) [Example 70, 6-[4-(1-Cyclopentyl-piperidin-4-ylmethoxy)-phenyl]-2-methyl-2H-pyridazin-3-one]
33 | 257 to 258 | CN1CCC(COc2ccc(-c3ccc(=O)n(C)n3)cc2)CC1 (as salt: HCl) [Example 71, 2-Methyl-6-[4-(1-methyl-piperidin-4-ylmethoxy)-phenyl]-2H-pyridazin-3-one]
34 | 108 to 110 | CC(C)N1CCC(Oc2ccc(-c3ccc(=O)n(C)n3)cc2)CC1 (as salt: HCl) [Example 72]
35 | 76 to 78 | C[C@@H](COc1ccc(-c2ccc(=O)n(C)n2)cc1)CN1CCC[C@H]1C (as salt: HCl) [Example 82, 2-Methyl-6-{4-[(R)-2-methyl-3-((R)-2-methyl-pyrrolidin-1-yl)-propoxy]-phenyl}-2H-pyridazin-3-one]
36 | 296 to 297 | Cc1n[nH]c(=O)cc1-c1ccc(OC2CCN(C3CCC3)CC2)cc1 (as salt: HCl) [Example 103, 5-[4-(1-Cyclobutyl-piperidin-4-yloxy)-phenyl]-6-methyl-2H-pyridazin-3-one]
37 | 277 to 279 | Cc1nn(-c2ccsc2)c(=O)cc1-c1ccc(OC2CCN(C3CCC3)CC2)cc1 (as salt: HCl) [Example 107, 5-[4-(1-Cyclobutyl-piperidin-4-yloxy)-phenyl]-6-methyl-2-thiophen-3-yl-2H-pyridazin-3-one]
38 | 257 to 259 | CC1CC(c2ccc(OC3CCN(C4CCC4)CC3)cc2)=NNC1=O (centres unmarked) (as salt: HCl) [Example 116, 6-[4-(1-Cyclobutyl-piperidin-4-yloxy)-phenyl]-4-methyl-4,5-dihydro-2H-pyridazin-3-one]
